Measured values published in patent US20200330456A1, “NOVEL APPLICATION OF GZD824 AND PHARMACEUTICALLY ACCEPTABLE SALTS THEREOF IN TREATING DISEASES” (HEALTHQUEST PHARMA INC., priority 2016, published 2020).

Assays:
NALM6 cells = assay: Apoptosis kit (ANNEXIN V, PI) flow cytometry, NALM6; type: cell-based; details: 24 hours, GZD824 vs KX2-391 vs HO-3867 vs DMSO
Experimental: 1.2 After treating NALM6 and SUPB15 cells respectively with GZD824 (3 μM, 1 μM) and DMSO of different concentrations for 24 hours, apoptosis was detected using an apoptosis kit (ANNEXIN V, PI). Please refer to FIG. 2 for the results. After treating the two types of cells NALM6 and SUPB15 respectively with GZD824 of different concentrations (3 μM/L, 1 μM/L) for 24 hours, the cells were stained with the apoptosis kit (ANNEXIN V, PI), and apoptosis was detected with flow cytometry.
5.3 After treating NALM6 cells with GZD824, SRC suppressor (KX2-391), STAT3 suppressor (HO-3867) or DMSO for 24 hours, apoptosis was detected by using the apoptosis kit (ANNEXIN V, PI). The ratio of ANNEXIN V positive cells was analyzed by statistical methods. […] For the experimental results, please refer to FIG. 15.

[1] = system: human primary leukemia cells from P #1 PDX mouse spleen; assay: Apoptosis of human primary leukemia cells from P #1 PDX mouse spleen, with and without IGF-1; type: cell-based; details: P #1 PDX spleen cells; GZD824 1 μM/L and IGF-1 10 ng/mL, 24 hours
Experimental: 6.2 Human primary leukemia cells were extracted from P #1 PDX mouse spleen and co-cultured with DMSO, GZD824 (1 μM/L), IGF-1 (10 ng/mL), or GZD824 (1 μM/L) and IGF-1 (10 ng/mL) for 24 hours. The ratios of ANNEXIN V positive cells were analyzed by statistical methods. […] Please refer to FIG. 17 for the experimental results.

Molecule	ratio of apoptosis (ANNEXIN V positive cells), comparison of inhibitors (NALM6 cells)	effect of added IGF-1 on GZD824-induced apoptosis [1]
CC1(C)C=C(CN2C/C(=C\c3ccc(F)cc3)C(=O)/C(=C/c3ccc(F)cc3)C2)C(C)(C)N1O [HO-3867, reference compound]	almost the same	
O=C(Cc1ccc(-c2ccc(OCCN3CCOCC3)cc2)cn1)NCc1ccccc1 [KX2-391, reference compound]	almost the same	
IGF-1: cytokine IGF-1, added at 10 ng/mL		partly reverse the effect of GZD824 on apoptosis
